The subject of one assay is VEGFA. Nature of the assay: VEGFA ELISA assay (IC50). In kind it is cell-based. As to conditions: Homo sapiens, 786-0, 786-O cells, 24 h, VEGFA in culture supernatant by ELISA. The method, then: 786-O cells in the logarithmic growth phase were inoculated into a 96-well plate at a cell concentration of 65,000 cells per ml of culture liquid, 180 μL per well. The compounds were diluted to the corresponding concentrations, and 20 μL of compound solutions of various concentrations were added to the corresponding cell wells, so that the final concentrations of the compounds were 1.5 nM, 4.6 nM, 13.7 nM, 41.2 nM, 123.5 nM, 370.4 nM, 1111.1 nM, 3333.3 nM, and 10000 nM, respectively. After culturing for 24 h, the cell culture supernatant was collected and the VEGFA concentration was determined using an ELISA kit (purchased from Abeam). Finally, the reaction was terminated and the absorbance value of each well was measured at a wavelength of 450 nm using an ELISA reader. The IC50 values were calculated by GraphPadPrism. CellTiter-Glo reagent was used to measure cell viability.

The next assay deals with 786-O-HIF2α-Luc cells. Nature of the assay: Luciferase assay (HIF2α reporter gene cells). In kind it is cell-based. The conditions noted are these: 18-20 h, luminescence. The method, then:
The luciferase LUC gene was stably transfected into 786-0 cells (purchased from ATCC) using Lipofectamine 3000 transfection reagent (purchased from Invitrogen) to construct HIF2α reporter gene cells (786-O-HIF2α-Luc cells). The experiment was performed when 786-O-HIF2α-Luc cells were in the logarithmic growth phase, the culture medium (RPMI MEDIUM 1640, purchased from Invitrogen) was discarded, and the cells were rinsed three times with PBS; trypsin (TrypLE, purchased from Invitrogen) was added to digest the cells, and the digestion was terminated with culture medium, 10% fetal bovine serum, 1% penicillin, and streptomycin. The cells were collected by centrifugation, and washed twice with PBS to remove phenol red in the culture medium. The cells were resuspended to an appropriate concentration. The cell density and viability were measured, to ensure that the cells with a viability of at least 90% were used in the assay.
The compounds at a gradient concentration were transferred into 384 wells using Echo550 (non-contact acoustic pipetting system, purchased from Labcyte), 25 nL/well. The cells were seeded into 384-well plates, with 4500 cells/well and 25 μL of culture medium, and the final concentrations of the compounds were 10000 nM, 3333 nM, 1111 nM, 370 nM, 123 nM, 41.1 nM, 13.7 nM, 4.6 nM, 1.5 nM, and 0.5 nM, respectively. The cells were cultured for 18-20 h under conditions of 37° C. and 5% CO2. Steady-Glo™ luciferase assay system (purchased from Promega) was added to a 384-well plate, 25 μL/well. Luminescence values were detected using Envision. The inhibition rate % was calculated based on the RLU (Record Luminescence) signal value of each well, and then the IC50 values of the corresponding compounds were calculated by fitting using Graphpad 8.0.
The IC50 data of the exemplary examples are provided in Table 2, where A stands for IC50≤0.1 μM; B stands for 0.1 μM<IC50≤0.5 μM; and C stands for IC50>0.5 μM.
(A reporter such as luciferase makes a cellular process visible.)

By IC50 is commonly meant the concentration that gives 50% inhibition. High values mean weaker potency in that assay, low ones greater potency in that assay. As for `O=S(=O)(c1cn(-c2ccc(F)c(C(F)(F)F)c2)c2c1[C@H](O)C(F)(F)CC2)C(F)(F)F` [Example 23, (S)-5,5-difluoro-1-(4-fluoro-3-(trifluoromethyl)phenyl)-3-((trifluoromethyl)sulfonyl)-4,5,6,7-tetrahydro-1H-indol-4-ol], the values for the half-maximal inhibitory concentration (IC50) in the assay with VEGFA and in the assay with 786-O-HIF2α-Luc cells were 11 nM and 40 nM, respectively.

Consider `O=S(=O)(c1cn(-c2ccc(F)c(C(F)F)c2)c2c1[C@H](O)CCC2)C(F)(F)F` [Example 52, (R)-1-(3-(difluoromethyl)-4-fluorophenyl)-3-((trifluoromethyl)sulfonyl)-4,5,6,7-tetrahydro-1H-indol-4-ol], for which the values for the half-inhibitory concentration (IC50) with VEGFA and in the assay with 786-O-HIF2α-Luc cells were 46 nM and 45 nM, respectively.

In the case of `O=S(=O)(c1cn(-c2ccc(F)c(C(F)F)c2)c2c1[C@H](O)CCC2)C(F)F` [Example 32, (R)-1-(3-(difluoromethyl)-4-fluorophenyl)-3-((difluoromethyl)sulfonyl)-4,5,6,7-tetrahydro-1H-indol-4-ol], the IC50 in the assay with VEGFA was 62 nM; in the assay with 786-O-HIF2α-Luc cells (class symbols), 100 to 500 nM. The like results for `N#Cc1ccc(-n2cc(C(F)(F)F)c3c2CCC(F)C3O)cc1C(F)F` (stereo not drawn) [Example 107, 2-(difluoromethyl)-4-(5-fluoro-4-hydroxyl-3-(trifluoromethyl)-4,5,6,7-tetrahydro-1H-indol-1-yl)benzonitrile] were, in that order, 34 nM and no more than 100 nM. Taken in the same sequence, the figures for `CS(=O)(=NC#N)c1cn(-c2ccc(F)c(C(F)F)c2)c2c1[C@H](O)C(F)(F)CC2` (stereo partly drawn) [Example 59, N—(((S)-1-(3-(difluoromethyl)-4-fluorophenyl)-5,5-difluoro-4-hydroxyl-4,5,6,7-tetrahydro-1H-indol-3-yl)(methyl)(oxo)-16-sulfino)cyanamide] were 109 nM and 100 to 500 nM.

As to `O=S(=O)(c1cn(-c2ccc(F)c(C(F)F)c2)c2c1[C@H](O)C(F)(F)CC2)C(F)F` [Example 6, (S)-1-(3-(difluoromethyl)-4-fluorophenyl)-3-((difluoromethyl)sulfonyl)-5,5-difluoro-4,5,6,7-tetrahydro-1H-indol-4-ol], the IC50 worked out at 11 nM in the assay on VEGFA and 38 nM in the assay on 786-O-HIF2α-Luc cells. As to `CC(C#N)S(=O)(=O)c1cn(-c2ccc(F)c(C(F)F)c2)c2c1[C@H](O)C(F)(F)CC2` (stereo partly drawn) [Example 57, 2-(((S)-1-(3-(difluoromethyl)-4-fluorophenyl)-5,5-difluoro-4-hydroxyl-4,5,6,7-tetrahydro-1H-indol-3-yl)sulfonyl) propanenitrile], the IC50 with VEGFA (class symbols) was no more than 500 nM. For `N#CCS(=O)(=O)c1cn(-c2ccc(F)c(C(F)(F)F)c2)c2c1[C@H](O)C(F)(F)CC2` [Example 13, (S)-2-((5,5-difluoro-1-(4-fluoro-3-(trifluoromethyl)phenyl)-4-hydroxyl-4,5,6,7-tetrahydro-1H-indol-3-yl)sulfonyl)acetonitrile], the IC50 in the assay with VEGFA (class symbols) is 500 to 1500 nM. Turning to `O=S(=O)(c1cn(-c2ccc(F)c(C(F)(F)F)c2)c2c1[C@H](O)C(F)(F)CC2)C(F)F` [Example 21, (S)-3-((difluoromethyl)sulfonyl)-5,5-difluoro-1-(4-fluoro-3-(trifluoromethyl)phenyl)-4,5,6,7-tetrahydro-1H-indol-4-ol], in the assay with VEGFA, the IC50 came to 12 nM. The same measure, in the same setting: under `N#Cc1cc(-n2cc(C(F)(F)C(F)(F)F)c3c2CCC(F)(F)C3O)ccc1F` (stereo not drawn) [Example 9, 5-(5,5-difluoro-4-hydroxyl-3-(perfluoroethyl)-4,5,6,7-tetrahydro-1H-indol-1-yl)-2-fluorobenzonitrile] stands 47 nM. Still for that read-out and setting: in the case of `N#Cc1ccc(-n2cc(S(=O)(=O)CF)c3c2CCC(F)(F)[C@H]3O)cc1C(F)(F)F` [Example 36, (S)-4-(5,5-difluoro-3-((fluoromethyl)sulfonyl)-4-hydroxyl-4,5,6,7-tetrahydro-1H-indol-1-yl)-2-(trifluoromethyl) benzonitrile] it was 108 nM. For `NC(=O)c1cn(-c2ccc(F)c(C(F)F)c2)c2c1[C@H](O)C(F)(F)CC2` [Example 62, (S)-1-(3-(difluoromethyl)-4-fluorophenyl)-5,5-difluoro-4-hydroxyl-4,5,6,7-tetrahydro-1H-indole-3-carboxamide], the concentration for half-maximal inhibition (IC50) in the assay with VEGFA (class symbols) is no more than 500 nM.

Turning to `N#Cc1cc(-n2cc(S(=O)(=O)C(F)F)c3c2CCC(F)(F)[C@H]3O)ccc1F` [Example 4, (S)-5-(3-((difluoromethyl)sulfonyl)-5,5-difluoro-4-hydroxyl-4,5,6,7-tetrahydro-1H-indol-1-yl)-2-fluorobenzonitrile], in the assay on VEGFA, inhibition was half-maximal at 98 nM (IC50). Same read-out and setting: under `OC1c2c(C(F)(F)F)cn(-c3ccc(F)c(CF)c3)c2CCC1(F)F` (stereo not drawn) [Example 2, 5,5-difluoro-1-(4-fluoro-3-(fluoromethyl)phenyl)-3-(trifluoromethyl)-4,5,6,7-tetrahydro-1H-indol-4-ol] stands 8.3 nM. For `N#Cc1cc(-n2cc(S(=O)(=O)C(F)(F)F)c3c2CCC(F)(F)[C@H]3O)ccc1Cl` [Example 40, (S)-2-chloro-5-(5,5-difluoro-4-hydroxyl-3-((trifluoromethyl)sulfonyl)-4,5,6,7-tetrahydro-1H-indol-1-yl)benzonitrile], the concentration for half-maximal inhibition (IC50) in the assay with VEGFA (class symbols) was no more than 500 nM.

`N#Cc1ccc(-n2cc(S(=O)(=O)CF)c3c2CCC(F)(F)[C@H]3O)cc1C(F)F` [Example 44, (S)-4-(5,5-difluoro-3-((fluoromethyl)sulfonyl)-4-hydroxyl-4,5,6,7-tetrahydro-1H-indol-1-yl)-2-(difluoromethyl) benzonitrile] registered an IC50 in the assay with VEGFA (class symbols) of no more than 500 nM. Same read-out and setting: under `N#Cc1cc(-n2cc(C(F)(F)C#N)c3c2CCC(F)(F)C3O)ccc1F` (stereo not drawn) [Example 17, 5-(3-(cyanodifluoromethyl)-5,5-difluoro-4-hydroxyl-4,5,6,7-tetrahydro-1H-indol-1-yl)-2-fluorobenzonitrile] stands no more than 500 nM. Take `N#CC(F)(F)c1cn(-c2ccc(F)c(C(F)F)c2)c2c1[C@H](O)C(F)(F)CC2` [Example 49, (S)-2-(1-(3-(difluoromethyl)-4-fluorophenyl)-5,5-difluoro-4-hydroxyl-4,5,6,7-tetrahydro-1H-indol-3-yl)-2,2-difluoroacetonitrile]: 99 nM corresponded to half-maximal inhibition in the assay with VEGFA (IC50). Still for that read-out and setting: in the case of `CS(=O)(=O)c1cn(-c2ccc(F)c(Cl)c2)c2c1C(O)C(F)(F)CC2` (stereo not drawn) [Example 24, 1-(3-chloro-4-fluorophenyl)-5,5-difluoro-3-(methylsulfonyl)-4,5,6,7-tetrahydro-1H-indol-4-ol] it was 72 nM; in that of `N#Cc1ccc(-n2cc(S(=O)(=O)C(F)(F)F)c3c2CCC(F)(F)[C@H]3O)cc1C(F)(F)F` [Example 31, (S)-4-(5,5-difluoro-4-hydroxyl-3-((trifluoromethyl)sulfonyl)-4,5,6,7-tetrahydro-1H-indol-1-yl)-2-(trifluoromethyl)benzonitrile], 21 nM. For `CCOC(=O)C(F)(F)c1cn(-c2ccc(F)c(C(F)F)c2)c2c1[C@H](O)C(F)(F)CC2` [Example 48, ethyl (S)-2-(1-(3-(difluoromethyl)-4-fluorophenyl)-5,5-difluoro-4-hydroxyl-4,5,6,7-tetrahydro-1H-indol-3-yl)-2,2-difluoroacetate], in the assay with VEGFA, the concentration for half-maximal inhibition (IC50) was 1620 nM. In turn, `N#Cc1cc(-n2c(F)c(S(=O)(=O)C(F)F)c3c2CCC(F)(F)[C@H]3O)ccc1F` [Example 22, (S)-5-(3-((difluoromethyl)sulfonyl)-2,5,5-trifluoroether-4-hydroxyl-4,5,6,7-tetrahydro-1H-indol-1-yl)-2-fluorobenzonitrile] gave an IC50 with VEGFA of 86 nM. The compound `N#CC1(S(=O)(=O)c2cn(-c3ccc(F)c(C(F)F)c3)c3c2[C@H](O)C(F)(F)CC3)CC1` [Example 58, (S)-1-((1-(3-(difluoromethyl)-4-fluorophenyl)-5,5-difluoro-4-hydroxyl-4,5,6,7-tetrahydro-1H-indol-3-yl)sulfonyl)cyclopropane-1-nitrile] came in with an IC50 in the assay on VEGFA of 639 nM.

In the assay with VEGFA (class symbols), `O[C@H]1c2c(C(F)(F)F)cn(-c3ccc(F)cc3F)c2CCC1(F)F` [Example 72, (S)-1-(2,4-difluorophenyl)-5,5-difluoro-3-(trifluoromethyl)-4,5,6,7-tetrahydro-1H-indol-4-ol] registered a half-maximal inhibitory concentration (IC50) of 500 to 1500 nM.

For the origin of these results see patent US20250042853A1, “BICYCLIC COMPOUND AND APPLICATION THEREOF” (BETTA PHARMACEUTICALS CO., LTD, priority 2021, published 2025).
